One data set has as its system Yersinia entomophaga. Kind of data set: CFU counts after exposure of Yersinia entomophaga to insecticides. Format: cell-based. The conditions noted are these: 1 hour contact. The essentials:
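Insecticides at 1× (label-rate based) and 5× or 10× amounts were dried from ethyl acetate as a coat inside tubes. Diluted LB-grown Y. entomophaga culture (1 ml) was added and held 1 hour on the bench. Then 100 μl was plated in triplicate on LB and colonies were counted after 48 hours at 25° C.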

Data set [1] relates to diamondback moth. Kind of data set: whole plant or invertebrate. The conditions noted are these: spinosad […].
Excerpt: (§1) These were set to dry for 1 hr.
as §1
These were set to dry for 1 hr. Cabbage disks were then dipped in either 1% Luria broth (LB) media solution (controls and thiacloprid alone treatments) or in 1% cell free filtrate from a culture Y. entomophaga isolate O24G3R (Y. entomophaga alone or in combination with thiacloprid treatments).

The subject of data set [2] is fall armyworm. The conditions noted are these: in vivo.
Data set [3] deals with Colorado potato beetle. The following applies: in vivo.
Data set [4] concerns diamondback moth. The following applies: in vivo.
Data set [5] has as its system cabbage looper. The conditions noted are these: spinosad 7.5 mg/L.
Procedure: (§2) To produce cell free filtrates, cultures of Yersinia entomophaga grown in LB medium were centrifuged at 11,448 (g) for 10 minutes. The supernatant was decanted from the centrifuged pellet and filtered through a 0.22 μm filter. Assays were performed to determine concentrations of Yen-TC (toxin complex) using ELISA, and chitinase by measuring chitinase activity on specific substrates. […] This was done to estimate relative potency of the cell free filtrates. Insects were first pre-screened with a range of dilutions of cell free filtrates to select a concentration that provided moderate activity. […] Based on these initial screens, undiluted cell free filtrate was used for cabbage looper, fall armyworm, black cutworm, and Colorado potato beetle. […] In each of the Examples below, this is expressed as 1%.
Cabbage leaf disks were dipped in either acetone (controls and Y. entomophaga alone treatments) or novaluron (Sigma 32419) at 1.0 mg/L in acetone. These were set to dry for 1 hr. […] After the cabbage disks had dried for 1 hr, a single 3rd instar cabbage looper was added to each individual cabbage disk. A total of 20 insects were evaluate for each treatment. Insects were observed daily and scored as live or dead.
The subject of data set [6] is Colorado potato beetle. The conditions noted are these: for LT50 (95% confidence intervals): 3rd instar Colorado potato beetle, O43NEW undiluted filtrate, alone or combined.
Procedure: as §2
Tomato leaf disks were dipped in either acetone (controls and Y. entomophaga alone treatments) or thiacloprid (Sigma 37905) at 1 mg/L in acetone. These were set to dry for 1 hr. […] After the tomato disks had dried for 1 hr, a single 3rd instar Colorado potato beetle was added to each individual cabbage disk. A total of 20 insects were evaluate for each treatment. Insects were observed daily and scored as live or dead.
The test system of data set [7] is fall armyworm. Kind of data set: Leaf disk mortality assay, Y. entomophaga cells with chemical insecticides.
The subject of data set [8] is diamondback moth. The description is as above. The following applies: in vivo.
The subject of data set [9] is Colorado potato beetle. Kind of data set: Tomato leaf disk mortality assay, Y. entomophaga cells with chemical insecticides. The following applies: for mortality at 0.56 µg/mL: Leptinotarsa decemlineata, in Solanum lycopersicum, foliar.
The next data set has as its system western flower thrips. Kind of data set: Leaf disk mortality assay, Y. entomophaga cells with chemical insecticides. In kind it is in vivo. The conditions noted are these: for mortality at 100 µg/mL: Frankliniella occidentalis, foliar; for mortality at 100 µg/mL / LT50 (95% confidence intervals) in days: adults, imidacloprid 100 mg/L; for % Mort. Chem.: Imidacloprid 100 mg/L. How it is done:
These were set to dry for 1 hr. After the disks had dried, two were placed in individual cups and 12 adult western flower thrips were added. This experiment was repeated and a total of 24 insects were evaluated for each treatment.

Another data set relates to corn earworm. The description is as above. In kind it is in vivo. The conditions noted are these: for % Mort. Chem. / LT50 Chem.: corn earworm. Also on record: mortality: dose or concentration left out as unconfirmed. How it is done:
50 μl suspensions of either acetone (controls and Y. entomophaga alone treatments) or of thiodicarb (Sigma 34375) at a concentration of 140 mg/L in acetone were then dropped onto each cabbage disk. These were set to dry for 1 hr. After the disks had dried, one 2nd instar corn earworm was added to each disk. A total of 12 insects were evaluated for each treatment.
50 μl suspensions of either acetone (controls and Y. entomophaga alone treatments) or of chlorantraniliprole (Sigma 32510) at a concentration of 18 mg/L in acetone were then dropped onto each cabbage disk. These were set to dry for 1 hr. After the disks had dried, one 2nd instar corn earworm was added to each disk. A total of 24 insects were evaluated for each treatment.

In data set [10] the test system is cabbage looper.
Data set [11] deals with tobacco budworm. The following applies: for LT50 (95% confidence intervals) in days: in vivo; for % Mort. Chem. / LT50 Chem.: tobacco budworm; for % Mort. Chem.: 1 DAT.
Data set [12] has as its system cabbage looper. Kind of data set: whole plant or invertebrate. The following applies: Trichoplusia ni, foliar.
Data set [13] relates to tobacco budworm. Kind of data set: whole plant or invertebrate. The conditions noted are these: Heliothis virescens, foliar.
The mark [14] stands for this setting: 3rd instar, spinosad 25 mg/L, isolate O24G3R 1×10^5 cfu/mL.
[15] abbreviates: 3rd instar, spinosad 25 mg/L, isolate O348UX 1×10^5 cfu/mL.
Setting [16] is: 24 h, read-out: % Mortality (1DAT).
Where [17] appears, read: 48 h, read-out: % Mortality (2DAT).
Setting [18] is: Chlorantraniliprole alone 18 mg/L.

Values joined by “and” are separate entries in the source; they are usually repeats but may differ in a detail not shown here. Identical values can stand only once. Like-named read-outs stand apart in the source and are kept apart here.

Take Spinosad: the “Average CFU” value in the data set with Yersinia entomophaga (0.2 mg insecticide) was 523 CFU; in the data set on Yersinia entomophaga (1.0 mg insecticide) it was 487 CFU. Besides, the “LT50 (95% confidence intervals)” value with diamondback moth [1] (2nd instar diamondback moth, O43NEW filtrate 1%, alone or combined) came out at 8.16 days; with Colorado potato beetle [6] (spinosad […]) it was 78.3 days; in the data set with diamondback moth [8], 8.16 days. Moreover, the “LT50 Chem.” value with diamondback moth [1] (Diamondback moth) is 8.16 days; in the data set with cabbage looper [5] (Cabbage Looper), 7.01 days; in the data set with Colorado potato beetle [6] (Colorado potato beetle, spinosad […]), 78.30 days; in the data set with fall armyworm [7] (fall armyworm, Spinosad alone 25 mg/L), 4.09 days and 2.43 days; with diamondback moth [8], 8.16 days; in the data set on Colorado potato beetle [9] (Colorado potato beetle, Spinosad alone […]) it was 6.01 days. The “% Mortality (3DAT)” value with fall armyworm [2] is 40%; with Colorado potato beetle [3], 15%; in the data set with diamondback moth [4], 10%; in the data set with fall armyworm [7] (setting [14]), 80%; in the data set with fall armyworm [7] (setting [15]), 80%. In addition, the “% Mortality (4DAT)” value with Colorado potato beetle [3] was 20%; in the data set with diamondback moth [4] it was 15%. The “% Mortality (5DAT)” value is 40% in the data set on Colorado potato beetle [3] and 25% with cabbage looper [5] (3rd instar cabbage looper, O43NEW undiluted filtrate, alone or combined, 5 DAT, Abbott's corrected). The “% Mortality (2DAT)” value is reported as 0% with diamondback moth [4] and 10% with cabbage looper [5] (3rd instar cabbage looper, O43NEW undiluted filtrate, alone or combined, 2 DAT, Abbott's corrected). Further, in the data set with diamondback moth [4], the “% Mortality (7DAT)” value stood at 40%. Also, the “% Mortality (9DAT)” value with diamondback moth [4] was 39%; with cabbage looper [5] (3rd instar cabbage looper, O43NEW undiluted filtrate, alone or combined, 9 DAT, Abbott's corrected) it was 55%. Moreover, in the data set with diamondback moth [4], the “% Mortality (11DAT)” value was determined as 65%. The “% Mortality (6DAT)” value in the data set with cabbage looper [5] (3rd instar cabbage looper, O43NEW undiluted filtrate, alone or combined, 6 DAT, Abbott's corrected) is given as 50%. The “% Mortality (8DAT)” value in the data set with cabbage looper [5] (3rd instar cabbage looper, O43NEW undiluted filtrate, alone or combined, 8 DAT, Abbott's corrected) came to 55%. Besides, the “% Mort. Chem.” value with cabbage looper [5] (Cabbage Looper, 5 DAT) is reported as 25%; with fall armyworm [7] (fall armyworm, Spinosad 25 mg/L, 3 DAT (row with 024G3R)), 80%; with fall armyworm [7] (fall armyworm, Spinosad 25 mg/L, 3 DAT (row with O348UX)), 80%; in the data set on fall armyworm [7] (in vivo), 40%. Further, the “LT50 (95% confidence intervals) in days” value with fall armyworm [7] (setting [14]) was 2.43 (2.08-2.84) days; in the data set with fall armyworm [7] (setting [15]) it was 2.43 (2.08-2.84) days; with fall armyworm [7] (in vivo), 4.09 (3.67-4.55) days; with Colorado potato beetle [9] (in vivo), 6.01 (4.93-7.28) days.

For the molecule `O=[N+]([O-])NC1=NCCN1Cc1ccc(Cl)nc1` [Imidacloprid], the mortality (as a rule, the percentage killed) at 100 µg/mL in the data set with western flower thrips (24 h, isolate O333A4 1×10^5 cfu/mL, read-out: % Mortality (1DAT)) stood at 16%; in the data set with western flower thrips (48 h, isolate O43NEW 1×10^5 cfu/mL, read-out: % Mortality (2DAT)), 29%. Further, the “LT50 (95% confidence intervals) in days” value in the data set on western flower thrips (isolate O43NEW 1×10^5 cfu/mL) is recorded as 2.72 (2.40-3.08) days; in the data set on western flower thrips (isolate O333A4 1×10^5 cfu/mL), 2.72 (2.40-3.08) days; in the data set with Colorado potato beetle [9] (4th instar larva, imidacloprid 0.56 mg/L, isolate O43NEW 1×10^7 cfu/mL) it was 20.38 (15.79-27.60) days. In addition, the “% Mort. Chem.” value in the data set on western flower thrips (western flower thrips, 2 DAT (row with O43NEW)) is reported as 29%; with western flower thrips (western flower thrips, 2 DAT (row with O333A4)), 16%; with Colorado potato beetle [6] (Colorado potato beetle, imidacloprid 0.56 mg/L, 6 DAT), 5%; with Colorado potato beetle [9] (Colorado potato beetle, Imidacloprid 0.56 mg/L, 10 DAT), 17%. For the same molecule, the “LT50 Chem.” value in the data set with western flower thrips (western flower thrips, Imidacloprid alone 100 mg/L) was determined as 2.72 days; in the data set with Colorado potato beetle [6] (Colorado potato beetle, imidacloprid 0.56 mg/L), 18.03 days; in the data set with Colorado potato beetle [9] (Colorado potato beetle, Imidacloprid alone 0.56 mg/L) it was 20.38 days. Also, in the data set on Colorado potato beetle [6] (imidacloprid 0.56 mg/L), the “LT50 (95% confidence intervals)” value is recorded as 18.03 days. Besides, the mortality at 0.56 µg/mL in the data set on Colorado potato beetle [9] (72 h, read-out: % Mortality (3DAT)) amounted to 0%; with Colorado potato beetle [9] (240 h, read-out: % Mortality (10DAT)), 17%; in the data set on Colorado potato beetle [9] (312 h, read-out: % Mortality (13DAT)), 7%.

`CS/C(C)=N\OC(=O)N(C)SN(C)C(=O)O/N=C(\C)SC` [Thiodicarb]: the “LT50 (95% confidence intervals) in days” value is given as 2.02 (1.60-2.50) days in the data set on corn earworm (2nd instar, thiodicarb 140 mg/mL, isolate O43NEW 1×10^7 cfu/mL) and 1.98 (1.57-2.45) days in the data set with tobacco budworm [11]. Besides, the mortality in the data set on corn earworm (Helicoverpa zea, foliar, 24 h, 2nd instar, thiodicarb, isolate O43NEW 1×10^7 cfu/mL, read-out: % Mortality (1DAT)) stood at 0%. Moreover, the “% Mort. Chem.” value came out at 0% in the data set with corn earworm (Thiodicarb 140 mg/L, 1 DAT); 33% in the data set on corn earworm (Thiodicarb 140 mg/L, 2 DAT); 25% with cabbage looper [10] (in vivo); 25% in the data set with tobacco budworm [11] (Thiodicarb 140 mg/L). The “LT50 Chem.” value came to 2.02 days in the data set with corn earworm (Thiodicarb alone 140 mg/L); 1.40 days in the data set with cabbage looper [10] (cabbage looper, Thiodicarb alone 140 mg/L); 1.98 days in the data set with tobacco budworm [11] (Thiodicarb alone 140 mg/L). Besides, the “LT50 (95% confidence intervals)” value with cabbage looper [10] (in vivo) amounted to 1.40 days. Further, the mortality at 140 µg/mL is 25% in the data set with cabbage looper [12] (setting [16]), 50% in the data set with cabbage looper [12] (setting [17]), 25% in the data set with tobacco budworm [13] (setting [16]) and 50% in the data set on tobacco budworm [13] (setting [17]).

Turning to `CNC(=O)c1cc(Cl)cc(C)c1NC(=O)c1cc(Br)nn1-c1ncccc1Cl` [Chlorantraniliprole], the entries for the “Average CFU” value in the data set on Yersinia entomophaga (0.15 mg insecticide) and in the data set on Yersinia entomophaga (2.0 mg insecticide) were 523 CFU and 387 CFU, respectively. Moreover, the “LT50 (95% confidence intervals) in days” value is 3.29 (2.85-3.77) days with corn earworm (2nd instar, chlorantraniliprole 18 mg/L, isolate O43NEW 1×10^5 cfu/mL); 2.39 (2.10-2.70) days with cabbage looper [10] (in vivo); 2.20 (1.91-2.53) days with tobacco budworm [11]. In addition, the mortality at 18 µg/mL is 0% in the data set on corn earworm (Helicoverpa zea, foliar, 24 h, 2nd instar, chlorantraniliprole 18 mg/L, isolate O43NEW 1×10^5 cfu/mL, read-out: % Mortality (1DAT)); 0% with corn earworm (Helicoverpa zea, foliar, 48 h, 2nd instar, chlorantraniliprole 18 mg/L, isolate O43NEW 1×10^5 cfu/mL, read-out: % Mortality (2DAT)); 8% with cabbage looper [12] (setting [16]); 38% in the data set on cabbage looper [12] (setting [17]); 8% in the data set on tobacco budworm [13] (setting [16]); 25% with tobacco budworm [13] (setting [17]). Also, the “% Mort. Chem.” value amounted to 0% in the data set on corn earworm (Chlorantraniliprole 18 mg/L, 2 DAT (row with O43NEW 1 × 10^3)); 0% with corn earworm (Chlorantraniliprole 18 mg/L, 2 DAT (row with O43NEW 1 × 10^5)); 8% in the data set with cabbage looper [10] (cabbage looper, Chlorantraniliprole 18 mg/L, 1 DAT); 38% with cabbage looper [10] (in vivo); 8% with tobacco budworm [11] (Chlorantraniliprole 18 mg/L). For the same molecule, the “LT50 Chem.” value was 3.29 days and 3.44 days in the data set on corn earworm (setting [18]); 2.39 days in the data set on cabbage looper [10] (cabbage looper, Chlorantraniliprole alone 18 mg/L); 2.20 days with tobacco budworm [11] (setting [18]).

The values are drawn from patent US11716994B2, “Combinations of Yersinia entomophaga and pesticides or other substances” (priority 2017, dated 2023).
